Literature values as cited in patent publication US20130281457A1, “PHARMACEUTICAL COMPOSITIONS COMPRISING 5-CHLORO-N-(-METHYL)-2-THIOPHENCARBOXAMID” (Ratiopharm GmbH, priority 2008, published 2013).

For `O=C(NC[C@H]1CN(c2ccc(N3CCOCC3=O)cc2)C(=O)O1)c1ccc(Cl)s1` [Compound I, 5-Chloro-N-({(5S)-2-oxo-3-[4-(3-oxo-4-morpholinyl)-phenyl]-1,3-oxazolidin-5-yl}-methyl)-2-thiophencarboxamid], the solubility in water is listed as “only limited solubility in water”.
